Measured values as given in PubChem BioAssay (NCI).
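Results reflect a 48-hour exposure of cells in 96-well plates to compound at five concentrations. The concentration for 50% growth inhibition is given as GI50. At the TGI there is no net growth.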

How the values were obtained:
Assay in all cases: inhibition of tumour cell growth, NCI panel, 48 h
[1] = system: 786-0 renal
[2] = system: A498 renal
[3] = system: A549 NSCLC
[4] = system: ACHN renal
[5] = system: BT-549 breast
[6] = system: CAKI-1 renal
[7] = system: CCRF-CEM leukemia
[8] = system: COLO 205 colon
[9] = system: DU-145 prostate
[10] = system: HCC-2998 colon
[11] = system: HCT-116 colon
[12] = system: HCT-15 colon
[13] = system: HL-60(TB) leukemia
[14] = system: HOP-62 NSCLC
[15] = system: HOP-92 NSCLC
[16] = system: HS 578T breast
[17] = system: HT29 colon
[18] = system: IGROV1 ovarian
[19] = system: K-562 leukemia
[20] = system: KM12 colon
[21] = system: LOX IMVI melanoma
[22] = system: M14 melanoma
[23] = system: MALME-3M melanoma
[24] = system: MCF7 breast
[25] = system: MDA-MB-231 breast
[26] = system: MDA-MB-435
[27] = system: MOLT-4 leukemia
[28] = system: NCI-H226 lung
[29] = system: NCI-H23 lung
[30] = system: NCI-H460 lung
[31] = system: NCI-H522 lung
[32] = system: NCI/ADR-RES ovarian
[33] = system: OVCAR-3 ovarian
[34] = system: OVCAR-4 ovarian
[35] = system: OVCAR-5 ovarian
[36] = system: OVCAR-8 ovarian
[37] = system: PC-3 prostate
[38] = system: RPMI-8226 leukemia
[39] = system: RXF 393 renal
[40] = system: SF-268 CNS
[41] = system: SF-295 CNS
[42] = system: SF-539 CNS
[43] = system: SK-MEL-2 melanoma
[44] = system: SK-MEL-28 melanoma
[45] = system: SK-MEL-5 melanoma
[46] = system: SK-OV-3 ovarian
[47] = system: SN12C renal
[48] = system: SNB-19 CNS
[49] = system: SNB-75 CNS
[50] = system: SR leukemia
[51] = system: SW-620 colon
[52] = system: T-47D breast
[53] = system: TK-10 renal
[54] = system: U251 CNS
[55] = system: UACC-257 melanoma
[56] = system: UACC-62 melanoma
[57] = system: UO-31 renal

Question: Which GI50 [1] does the source give for `Cn1cc(C2=C(c3c4n(c5ccccc35)CCNC4)C(=O)NC2=O)c2ccccc21` here?
Answer: 14.8 µM

Question: What about the TGI [1] of the same compound?
Answer: > 25 µM

Question: And the GI50 [2]?
Answer: 4.71 µM

Question: What about the TGI [2] of the same compound?
Answer: 14.3 µM

Question: And the GI50 [3]?
Answer: 11.8 µM

Question: What about the TGI [3] of the same compound?
Answer: > 25 µM

Question: And the GI50 [4]?
Answer: 7.93 µM

Question: And the TGI [4]?
Answer: > 25 µM

Question: And the GI50 [5]?
Answer: 16.7 µM

Question: What about the TGI [5] of the same compound?
Answer: > 25 µM

Question: And the GI50 [6]?
Answer: 5.85 µM

Question: What about the TGI [6] of the same compound?
Answer: > 22.3 µM

Question: And the GI50 [7]?
Answer: 8.91 µM

Question: And the TGI [7]?
Answer: > 25 µM

Question: What about the GI50 [8] of the same compound?
Answer: 6.66 µM

Question: And the TGI [8]?
Answer: > 21.8 µM

Question: What about the GI50 [9] of the same compound?
Answer: 12.6 µM

Question: And the TGI [9]?
Answer: > 25 µM

Question: And the GI50 [10]?
Answer: 7.41 µM

Question: What about the TGI [10] of the same compound?
Answer: > 17.4 µM

Question: And the GI50 [11]?
Answer: 9.68 µM

Question: What about the TGI [11] of the same compound?
Answer: > 25 µM

Question: What about the GI50 [12] of the same compound?
Answer: 5.71 µM

Question: And the TGI [12]?
Answer: > 25 µM

Question: And the GI50 [13]?
Answer: 3.92 µM

Question: What about the TGI [13] of the same compound?
Answer: > 25 µM

Question: And the GI50 [14]?
Answer: 17.5 µM

Question: What about the TGI [14] of the same compound?
Answer: > 25 µM

Question: And the GI50 [15]?
Answer: 11.5 µM

Question: What about the TGI [15] of the same compound?
Answer: > 25 µM

Question: What about the GI50 [16] of the same compound?
Answer: 4.14 µM

Question: And the TGI [16]?
Answer: > 20.5 µM

Question: What about the GI50 [17] of the same compound?
Answer: 5.2 µM

Question: What about the TGI [17] of the same compound?
Answer: > 25 µM

Question: What about the GI50 [18] of the same compound?
Answer: > 10 µM

Question: And the TGI [18]?
Answer: > 21.5 µM

Question: What about the GI50 [19] of the same compound?
Answer: 4.1 µM

Question: What about the TGI [19] of the same compound?
Answer: > 25 µM

Question: What about the GI50 [20] of the same compound?
Answer: 8.63 µM

Question: What about the TGI [20] of the same compound?
Answer: > 25 µM

Question: And the GI50 [21]?
Answer: 11.3 µM

Question: What about the TGI [21] of the same compound?
Answer: > 25 µM

Question: And the GI50 [22]?
Answer: 12.4 µM

Question: What about the TGI [22] of the same compound?
Answer: > 25 µM

Question: And the GI50 [23]?
Answer: > 11.5 µM

Question: What about the TGI [23] of the same compound?
Answer: > 24.1 µM

Question: And the GI50 [24]?
Answer: 4.78 µM

Question: What about the TGI [24] of the same compound?
Answer: > 23.8 µM

Question: What about the GI50 [25] of the same compound?
Answer: 9.87 µM

Question: What about the TGI [25] of the same compound?
Answer: > 25 µM

Question: And the GI50 [26]?
Answer: 0.991 µM

Question: And the TGI [26]?
Answer: > 17.1 µM

Question: And the GI50 [27]?
Answer: 11 µM

Question: What about the TGI [27] of the same compound?
Answer: > 25 µM

Question: And the GI50 [28]?
Answer: 13.8 µM

Question: And the TGI [28]?
Answer: > 25 µM

Question: What about the GI50 [29] of the same compound?
Answer: 24.5 µM

Question: And the TGI [29]?
Answer: > 25 µM

Question: And the GI50 [30]?
Answer: 10.6 µM

Question: And the TGI [30]?
Answer: > 25 µM

Question: And the GI50 [31]?
Answer: 4.65 µM

Question: And the TGI [31]?
Answer: > 19.1 µM

Question: What about the GI50 [32] of the same compound?
Answer: 12.7 µM

Question: And the TGI [32]?
Answer: > 25 µM

Question: What about the GI50 [33] of the same compound?
Answer: 5.42 µM

Question: And the TGI [33]?
Answer: > 21.7 µM

Question: What about the GI50 [34] of the same compound?
Answer: > 9.74 µM

Question: What about the TGI [34] of the same compound?
Answer: > 25 µM

Question: And the GI50 [35]?
Answer: > 25 µM

Question: And the TGI [35]?
Answer: > 25 µM

Question: And the GI50 [36]?
Answer: > 16.9 µM

Question: What about the TGI [36] of the same compound?
Answer: > 25 µM

Question: What about the GI50 [37] of the same compound?
Answer: 7.02 µM

Question: What about the TGI [37] of the same compound?
Answer: > 25 µM

Question: What about the GI50 [38] of the same compound?
Answer: 10.1 µM

Question: What about the TGI [38] of the same compound?
Answer: > 22.3 µM

Question: And the GI50 [39]?
Answer: 3.73 µM

Question: What about the TGI [39] of the same compound?
Answer: 14.1 µM

Question: And the GI50 [40]?
Answer: 10.5 µM

Question: What about the TGI [40] of the same compound?
Answer: > 25 µM

Question: What about the GI50 [41] of the same compound?
Answer: 5.69 µM

Question: What about the TGI [41] of the same compound?
Answer: > 25 µM

Question: And the GI50 [42]?
Answer: 5.72 µM

Question: What about the TGI [42] of the same compound?
Answer: 14.3 µM

Question: What about the GI50 [43] of the same compound?
Answer: 8.03 µM

Question: What about the TGI [43] of the same compound?
Answer: > 21.3 µM

Question: What about the GI50 [44] of the same compound?
Answer: > 15.3 µM

Question: And the TGI [44]?
Answer: > 25 µM

Question: And the GI50 [45]?
Answer: 4.82 µM

Question: What about the TGI [45] of the same compound?
Answer: > 17.2 µM

Question: And the GI50 [46]?
Answer: 8.84 µM

Question: And the TGI [46]?
Answer: > 25 µM

Question: What about the GI50 [47] of the same compound?
Answer: 11.9 µM

Question: And the TGI [47]?
Answer: > 25 µM

Question: What about the GI50 [48] of the same compound?
Answer: > 22 µM

Question: What about the TGI [48] of the same compound?
Answer: > 25 µM

Question: And the GI50 [49]?
Answer: 1.04 µM

Question: What about the TGI [49] of the same compound?
Answer: 12 µM

Question: What about the GI50 [50] of the same compound?
Answer: 3.73 µM

Question: What about the TGI [50] of the same compound?
Answer: > 25 µM

Question: What about the GI50 [51] of the same compound?
Answer: 6.92 µM

Question: What about the TGI [51] of the same compound?
Answer: > 25 µM

Question: And the GI50 [52]?
Answer: > 21.2 µM

Question: What about the TGI [52] of the same compound?
Answer: > 25 µM

Question: What about the GI50 [53] of the same compound?
Answer: 11.3 µM

Question: And the TGI [53]?
Answer: > 25 µM

Question: And the GI50 [54]?
Answer: 9.23 µM

Question: What about the TGI [54] of the same compound?
Answer: > 25 µM

Question: And the GI50 [55]?
Answer: > 11.4 µM

Question: What about the TGI [55] of the same compound?
Answer: > 20.2 µM

Question: And the GI50 [56]?
Answer: 7.63 µM

Question: What about the TGI [56] of the same compound?
Answer: > 25 µM

Question: What about the GI50 [57] of the same compound?
Answer: 4.53 µM

Question: And the TGI [57]?
Answer: > 22.2 µM
